Patent US20060160869A1, “Ubiquitin ligase inhibitors” (Rigel Pharmaceuticals, Inc., priority 2005, published 2006)

Tests used:
Assay type in all cases: biochemical
MDM2 = MDM2 (Homo sapiens, UniProt Q00987); test: Plate-based E3 ligase assay, MDM2 autoubiquitination (MDM2-FLAG); details: Table 2; read-out: MDM2 IC50
Method: (§1) E3 (His-APC11/APC2—“APC”) auto-ubiquitination was measured as described in U.S. patent application Ser. No. 09/826,312 (Publication No. US-2002-0042083-A1), which is incorporated herein in its entirety. Details of the protocol are described below. Activity in the presence of the compound was determined relative to a parallel control in which only DMSO was added. Values of the IC50 were typically determined using 6 or 8 different concentrations of the compound, although as few as 2 concentrations may be used to approximate the IC50 value.
(§2) Nickel-coated 96-well plates (Pierce 15242) were blocked for 1 hour with 100 μl of blocking buffer at room temperature. The plates were washed 4 times with 225 μl of 1×PBS and 80 μl of the reaction buffer were added that contained 100 ng/well of Flag-ubiquitin. To this, 10 μl of the test compound diluted in DMSO were added. After the test compound was added, 10 μl of E1 (human), E2 (Ubch5c), and APC in Protein Buffer was added to obtain a final concentration of 5 ng/well of E1, 20 ng/well: of E2 and 100 ng/well of APC. The plate were shaken for 10 minutes and incubated at room temperature for 1 hour. After incubation, the plates were washed 4 times with 225 μl of 1×PBS and 100 μl/well of Antibody Mix were added to each well. The plates were incubate at room temperature for another hour after which they were washed 4 times with 225 μl of 1×PBS and 100 μl/well of Lumino substrate were added to each well. The luminescence was measured by using a BMG luminescence microplate reader.
In similar manner, autoubiquitination of the E3 MDM2 was determined (MDM2-FLAG). Further instruction in such assays can be found in U.S. patent application Ser. No. 10/108,767 (Publication No. US-2003-0104474 A1), which is incorporated herein in its entirety.
hMDM2 Plate/Gel is Mouse double minute 2, human homolog. This protein belongs to the E3 RING finger ligase group.

[1] = target: E3 (His-APC11/APC2, "APC") (Homo sapiens, UniProt Q9NYG5+Q9UJX6); test: Plate-based E3 ligase assay (APC FLAG), auto-ubiquitination; details: Table 2; read-out: APC IC50
Method: as §1, §2
APC Plate/gel is Anaphase Promoting Complex. This protein also belongs to E3 RING finger ligase group.

E2 (Ubch5c) = E2 (Ubch5c) (Homo sapiens, UniProt P61077); test: E2 ligase assay, E2 auto-ubiquitination; details: Table 2
Method: E2 (Ubch5c) auto-ubiquitination was measured as described in U.S. patent application Ser. No. 09/826,312 (Publication No. US-2002-0042083-A1), which is incorporated herein in its entirety. Details of the protocol are described below. Activity in the presence of the test compound was determined relative to a parallel control in which only DMSO was added. The IC50 values were typically determined using 6 or 8 different concentrations of compound, although as few as 2 concentrations may be used to approximate IC50 values.
Corning 96-well plates (Corning 3650) were blocked with 100 μl of Blocking Buffer for 1 hour at room temperature. The plates were washed for 4 times with 225 μl of 1×PBS and 80 μl of the reaction buffer were added that contained 100 ng/well of Flag-ubiquitin. To this, 10 μl of the test compound diluted in DMSO were added. After the test compound was added, 10 μl of E1 (human) and E2 (Ubch5c) in Protein Buffer were added to obtain a final concentration of 5 ng/well of E1 and 20 ng/well of E2. The plates were shaken for 10 minutes and incubated at room temperature for 1 hour. After incubation, the reaction was stopped by adding 25 μl of loading buffer (non-reducing) per well and the plates were heated at 95° C. for 5 minutes. An aliquot of each well was run on a 10% NugePage Gel and analyzed by Western Blot using the antibody mix and Lumino substrate described below. The luminescence was measured using a BMG luminescence microplate reader.

Chain of E3 (His-APC11/APC2, "APC") (Q9NYG5 whole entry): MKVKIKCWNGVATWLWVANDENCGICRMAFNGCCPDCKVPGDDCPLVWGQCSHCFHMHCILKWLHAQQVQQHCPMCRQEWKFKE
Chain of E3 (His-APC11/APC2, "APC") (Q9UJX6 whole entry): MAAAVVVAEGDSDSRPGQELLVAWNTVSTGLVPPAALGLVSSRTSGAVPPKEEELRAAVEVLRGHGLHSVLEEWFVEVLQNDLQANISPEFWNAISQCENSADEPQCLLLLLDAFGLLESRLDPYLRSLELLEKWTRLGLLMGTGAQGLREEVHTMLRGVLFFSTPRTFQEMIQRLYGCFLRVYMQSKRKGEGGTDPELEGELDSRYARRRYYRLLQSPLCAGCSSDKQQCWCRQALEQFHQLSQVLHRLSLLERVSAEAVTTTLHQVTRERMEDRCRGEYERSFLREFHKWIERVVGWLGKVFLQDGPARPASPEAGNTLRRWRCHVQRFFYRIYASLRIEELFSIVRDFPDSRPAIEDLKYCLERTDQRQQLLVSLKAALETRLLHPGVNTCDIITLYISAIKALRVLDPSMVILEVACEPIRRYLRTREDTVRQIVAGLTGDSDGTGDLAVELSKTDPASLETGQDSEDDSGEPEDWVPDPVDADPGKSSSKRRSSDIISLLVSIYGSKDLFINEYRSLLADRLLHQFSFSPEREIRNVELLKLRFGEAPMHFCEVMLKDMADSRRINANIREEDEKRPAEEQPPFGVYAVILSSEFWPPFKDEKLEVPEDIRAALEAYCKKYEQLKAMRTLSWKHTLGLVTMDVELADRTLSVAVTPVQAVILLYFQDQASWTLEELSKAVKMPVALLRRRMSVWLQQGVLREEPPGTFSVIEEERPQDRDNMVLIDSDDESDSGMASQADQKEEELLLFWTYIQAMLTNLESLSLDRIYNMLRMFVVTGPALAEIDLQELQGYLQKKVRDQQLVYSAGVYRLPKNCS
Chain of MDM2 (Q00987 whole entry): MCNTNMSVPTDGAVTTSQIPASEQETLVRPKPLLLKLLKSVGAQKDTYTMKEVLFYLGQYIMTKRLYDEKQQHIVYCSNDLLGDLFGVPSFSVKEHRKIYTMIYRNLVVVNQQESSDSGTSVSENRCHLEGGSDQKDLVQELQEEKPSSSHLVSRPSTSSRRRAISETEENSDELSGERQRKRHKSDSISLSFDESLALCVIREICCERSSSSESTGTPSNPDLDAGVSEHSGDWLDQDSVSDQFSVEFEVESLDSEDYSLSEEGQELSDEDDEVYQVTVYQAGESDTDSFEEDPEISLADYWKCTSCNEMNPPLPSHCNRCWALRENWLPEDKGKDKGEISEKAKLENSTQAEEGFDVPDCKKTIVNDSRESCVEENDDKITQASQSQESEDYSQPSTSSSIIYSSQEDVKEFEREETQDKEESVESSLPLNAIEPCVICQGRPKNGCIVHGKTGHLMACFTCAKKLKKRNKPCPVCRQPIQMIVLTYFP
Chain of E2 (Ubch5c) (P61077 whole entry): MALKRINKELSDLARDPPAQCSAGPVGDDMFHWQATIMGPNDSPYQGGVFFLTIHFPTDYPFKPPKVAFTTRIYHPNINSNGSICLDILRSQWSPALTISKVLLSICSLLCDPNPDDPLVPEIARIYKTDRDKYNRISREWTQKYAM

SMILES	IC50 (MDM2)	IC50 [1]	IC50 (E2 (Ubch5c))
CC(C)N(CCN(Cc1ccc(C(=O)N2CCNCC2)cc1)c1nc(-c2ccccc2Cl)cs1)C(C)C [compound 225]	≥ 20 µM	≥ 20 µM	–
CCN(Cc1ccc(C(=O)NCC(=O)O)cc1)c1nc(-c2ccc(-c3ccccc3)cc2)cs1 [compound 193]	1 to 20 µM	–	–
COc1ccccc1-c1csc(N(CCN(C(C)C)C(C)C)Cc2ccc(C(=O)N3CCNCC3)cc2)n1 [compound 292]	≥ 20 µM	≥ 20 µM	–
COc1ccc(-c2csc(N(Cc3ccc(C(=O)N4CCNCC4)cc3)Cc3cccc(OC(F)(F)F)c3)n2)cc1 [compound 222]	≥ 20 µM	≥ 20 µM	–
COc1cccc(CN(Cc2ccc(C(=O)N3CCNCC3)cc2)c2nc(-c3ccc(C)cc3)cs2)c1OC [compound 230]	≥ 20 µM	1 to 20 µM	–
COc1cccc(-c2csc(N(Cc3ccccc3)Cc3ccc(C(=O)NCC(=O)O)cc3)n2)c1 [compound 177]	< 1 µM	–	–
O=C(c1ccc(CN(Cc2cccc(OC(F)(F)F)c2)c2nc(-c3ccc(Br)cc3)cs2)cc1)N1CCNCC1 [compound 343]	1 to 20 µM	1 to 20 µM	–
Cc1ccc(-c2csc(N(Cc3ccc(C(=O)N4CCNCC4)cc3)Cc3cccc(OC(F)(F)F)c3)n2)cc1 [compound 235]	1 to 20 µM	1 to 20 µM	–
O=C(c1ccc(CN(Cc2cccc(OC(F)(F)F)c2)c2nc(-c3ccc(Cl)cc3)cs2)cc1)N1CCNCC1 [compound 251]	≥ 20 µM	≥ 20 µM	–
COc1cccc(CN(Cc2ccc(C(=O)N3CCNCC3)cc2)c2nc(-c3ccc(C)cc3)cs2)c1OC [compound 283]	–	≥ 20 µM	–
COc1ccc(OC)c(-c2csc(N(Cc3ccc(C(=O)N4CCNCC4)cc3)Cc3cccc(OC(F)(F)F)c3)n2)c1 [compound 267]	≥ 20 µM	1 to 20 µM	–
COc1ccc(-c2csc(N(CCOc3ccccc3)Cc3ccc(C(=O)N4CCNCC4)cc3)n2)cc1 [compound 223]	≥ 20 µM	≥ 20 µM	–
COc1cccc(CN(Cc2ccc(C(=O)N3CCNCC3)cc2)c2nc(-c3ccc(Cl)cc3)cs2)c1OC [compound 245]	≥ 20 µM	1 to 20 µM	–
O=C(c1ccc(CN(CCOc2ccccc2)c2nc(-c3ccc(Br)cc3)cs2)cc1)N1CCNCC1 [compound 344]	1 to 20 µM	1 to 20 µM	–
COc1ccc(OC)c(-c2csc(N(Cc3ccccc3)Cc3ccc(C(=O)NCC(=O)O)cc3)n2)c1 [compound 207]	1 to 20 µM	–	–
CCN(Cc1ccc(C(=O)NCC(=O)O)cc1)c1nc(-c2ccc(Cl)cc2)cs1 [compound 146, N-(4-{[[4-(4-chlorophenyl)-1,3-thiazol-2-yl](ethyl)amino]methyl}benzoyl)glycine]	≥ 20 µM	–	–
O=C(O)CNC(=O)c1ccc(CN(Cc2ccccc2)c2nc(-c3ccccc3)cs2)cc1 [compound 216]	1 to 20 µM	–	–
COc1ccc(OC)c(-c2csc(N(Cc3ccc(C(=O)NCC(=O)O)cc3)c3ccccc3F)n2)c1 [compound 215]	< 1 µM	1 to 20 µM	–

SMILES	IC50 (MDM2)	IC50 [1]	IC50 (E2 (Ubch5c))
CN(Cc1ccc(C(=O)NC(Cc2ccccc2)C(=O)O)cc1)c1nc(-c2ccc(Cl)cc2)cs1 (stereo not drawn) [compound 15]	1 to 20 µM	1 to 20 µM	–
COc1cccc(CN(Cc2ccc(C(=O)N3CCNCC3)cc2)c2nc(-c3ccc(Cl)c(Cl)c3)cs2)c1OC [compound 297]	1 to 20 µM	1 to 20 µM	≥ 20 µM
O=C(c1ccc(CN(Cc2cccc(OC(F)(F)F)c2)c2nc(-c3cccc([N+](=O)[O-])c3)cs2)cc1)N1CCNCC1 [compound 228]	≥ 20 µM	1 to 20 µM	–
CCN(Cc1ccc(C(=O)NCc2cccc(CN)c2)cc1)c1nc(-c2ccc(-c3ccccc3)cc2)cs1 [compound 65]	1 to 20 µM	1 to 20 µM	–
COc1ccc(-c2csc(N(Cc3ccc(C(=O)N4CCNCC4)cc3)Cc3cccc(OC)c3OC)n2)cc1 [compound 291]	≥ 20 µM	1 to 20 µM	–
O=C(c1ccc(CN(CCOc2ccccc2)c2nc(-c3ccc(Cl)cc3)cs2)cc1)N1CCNCC1 [compound 252]	≥ 20 µM	1 to 20 µM	–
O=C(c1ccc(CN(CCOc2ccccc2)c2nc(-c3ccc(F)cc3)cs2)cc1)N1CCNCC1 [compound 290]	≥ 20 µM	≥ 20 µM	–
COc1ccc(-c2csc(N(CCN(C(C)C)C(C)C)Cc3ccc(C(=O)N4CCNCC4)cc3)n2)cc1 [compound 227]	≥ 20 µM	≥ 20 µM	–
O=C(c1ccc(CN(Cc2cccc(OC(F)(F)F)c2)c2nc(-c3ccc(Cl)c(Cl)c3)cs2)cc1)N1CCNCC1 [compound 359]	1 to 20 µM	1 to 20 µM	–
COc1cccc(CN(Cc2ccc(C(=O)N3CCNCC3)cc2)c2nc(-c3ccccc3Cl)cs2)c1OC [compound 345]	≥ 20 µM	1 to 20 µM	≥ 20 µM
COc1cccc(CN(Cc2ccc(C(=O)N3CCNCC3)cc2)c2nc(-c3cccc([N+](=O)[O-])c3)cs2)c1OC [compound 224]	≥ 20 µM	≥ 20 µM	–
COc1ccccc1-c1csc(N(Cc2ccc(C(=O)N3CCNCC3)cc2)Cc2cccc(OC(F)(F)F)c2)n1 [compound 328]	1 to 20 µM	1 to 20 µM	≥ 20 µM
O=C(c1ccc(CN(c2nc(-c3ccc(Cl)cc3)cs2)c2cccc3ccccc23)cc1)N1CCNCC1 [compound 289]	≥ 20 µM	≥ 20 µM	–
Cc1sc(N(C)Cc2ccc(C(=O)NCc3cccc(CN)c3)cc2)nc1-c1ccccc1 [compound 14]	≥ 20 µM	≥ 20 µM	–
COc1cccc(-c2csc(N(CCN(C(C)C)C(C)C)Cc3ccc(C(=O)N4CCNCC4)cc3)n2)c1 [compound 231]	≥ 20 µM	≥ 20 µM	–
COc1ccc(OC)c(-c2csc(N(CCOc3ccccc3)Cc3ccc(C(=O)N4CCNCC4)cc3)n2)c1 [compound 268]	≥ 20 µM	≥ 20 µM	–
O=C(O)CNC(=O)c1ccc(CN(CCc2ccccc2)c2nc(-c3ccccc3)cs2)cc1 [compound 186]	1 to 20 µM	–	–
